The source of these data is patent US10357438B2, “Metal salt compositions” (Colgate-Palmolive Company, priority 2014, dated 2019).

The series deals with five species, planktonic mix of representative oral species (Actinomyces viscosus, Lactobacillus casei, Streptococcus oralis, Fusobacterium nucleatum, and …). The series can be described thus: Resazurin bacterial inhibition assay. The following applies: 1% elemental Zn final concentration; 1 h incubation; resazurin fluorescence. The series is classed as cell-based. From the text:
The antibacterial activity of the Zn2CitCl (dizinc citrate chloride) complex was compared against zinc citrate (ZnCit) using the resazurin bacterial inhibition assay. In order to test this hypothesis, we used an assay we have developed based on the metabolic indicator dye resazurin. […] A five species, planktonic mix of representative oral species is used in this assay (Actinomyces viscosus, Lactobacillus casei, Streptococcus oralis, Fusobacterium nucleatum, and Veillonella parvula). Bacteria are incubated with the test solution for 1 h prior to staining with 50 μg/ml of resazurin solution. When viable, metabolically active bacteria are incubated with resazurin, the blue, non-fluorescent dye is reduced by the bacteria to the pink fluorescent dye resrufin. Fluorescence of test samples are read at 560 nm excitation/590 nm emission and compared to the fluorescence of standard mixes of live and dead bacteria to determine the percentage of the initial population that remained viable following treatment. Samples were tested at a final concentration of 1% elemental Zn for each compound indicated.
A general note: Resazurin is reduced to fluorescent resorufin, in cell work by metabolically active cells.
As for basic sodium zinc citrate, the “% viability” value is listed as 7.0%. The value for sodium zinc citrate was 5.9%.

Consider basic sodium dizinc citrate chloride, for which the “% viability” value is recorded as 3.3%.
